Activity calls are given as the source filed them. The rule behind the calls is not given here.
What was measured:
[1] = molecular target: T1, Alpha-1A adrenergic receptor (Homo sapiens, UniProt P35348); test: biochemical
T1 sequence (P35348 whole entry): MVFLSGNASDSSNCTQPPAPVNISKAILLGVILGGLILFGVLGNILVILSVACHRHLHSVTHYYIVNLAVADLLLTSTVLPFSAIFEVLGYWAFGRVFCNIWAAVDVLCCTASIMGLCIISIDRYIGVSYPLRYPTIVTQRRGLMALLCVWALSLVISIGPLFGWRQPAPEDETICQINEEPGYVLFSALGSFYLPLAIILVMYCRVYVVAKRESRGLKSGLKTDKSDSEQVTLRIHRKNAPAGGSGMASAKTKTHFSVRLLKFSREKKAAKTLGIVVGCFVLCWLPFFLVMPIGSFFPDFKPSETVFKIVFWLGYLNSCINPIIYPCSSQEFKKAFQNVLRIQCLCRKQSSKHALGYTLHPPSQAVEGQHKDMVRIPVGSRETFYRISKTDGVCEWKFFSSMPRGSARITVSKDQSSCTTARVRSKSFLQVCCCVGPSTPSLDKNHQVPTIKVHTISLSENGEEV
Description: Displacement of [3H]Prazosin from human recombinant alpha 1A adrenergic receptor expressed in CHO cells incubated for 30 mins by radioligand competition binding assay

[2] = molecular target: T2, Alpha-1B adrenergic receptor (Homo sapiens, UniProt P35368); test: biochemical
T2 sequence (P35368 whole entry): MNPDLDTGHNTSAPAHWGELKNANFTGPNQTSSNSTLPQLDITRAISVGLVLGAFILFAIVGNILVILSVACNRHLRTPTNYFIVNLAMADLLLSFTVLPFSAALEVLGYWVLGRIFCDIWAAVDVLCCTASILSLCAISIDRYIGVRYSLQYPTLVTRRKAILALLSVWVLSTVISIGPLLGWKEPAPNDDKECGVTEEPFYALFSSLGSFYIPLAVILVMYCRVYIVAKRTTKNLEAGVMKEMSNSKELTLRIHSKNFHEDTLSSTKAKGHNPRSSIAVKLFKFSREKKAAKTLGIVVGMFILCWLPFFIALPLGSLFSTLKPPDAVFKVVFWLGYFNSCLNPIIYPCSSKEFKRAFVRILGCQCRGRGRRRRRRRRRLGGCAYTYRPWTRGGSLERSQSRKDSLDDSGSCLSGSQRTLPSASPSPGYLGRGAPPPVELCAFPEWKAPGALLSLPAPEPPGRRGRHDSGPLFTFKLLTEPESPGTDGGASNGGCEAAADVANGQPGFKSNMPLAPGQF
Description: Displacement of [3H]Prazosin from human recombinant alpha 1B adrenergic receptor expressed in CHO cells incubated for 30 mins by radioligand competition binding assay

[3] = molecular target: T3, Alpha-1D adrenergic receptor (Homo sapiens, UniProt P25100); test: biochemical
T3 sequence (P25100 whole entry): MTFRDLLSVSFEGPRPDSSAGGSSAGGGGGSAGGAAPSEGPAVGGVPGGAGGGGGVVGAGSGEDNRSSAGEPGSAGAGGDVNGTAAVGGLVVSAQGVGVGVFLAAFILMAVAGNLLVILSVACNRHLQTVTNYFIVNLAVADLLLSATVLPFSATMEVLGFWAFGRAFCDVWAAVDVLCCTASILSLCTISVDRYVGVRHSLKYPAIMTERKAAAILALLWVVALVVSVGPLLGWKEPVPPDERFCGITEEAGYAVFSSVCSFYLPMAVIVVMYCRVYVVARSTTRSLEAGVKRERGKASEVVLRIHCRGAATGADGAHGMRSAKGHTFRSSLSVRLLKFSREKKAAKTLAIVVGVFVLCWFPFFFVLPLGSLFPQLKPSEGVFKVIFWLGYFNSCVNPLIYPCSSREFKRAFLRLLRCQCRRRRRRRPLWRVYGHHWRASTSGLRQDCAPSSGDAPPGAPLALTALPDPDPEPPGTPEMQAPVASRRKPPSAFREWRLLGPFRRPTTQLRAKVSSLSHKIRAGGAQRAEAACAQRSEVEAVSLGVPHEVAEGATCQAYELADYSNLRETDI
Description: Displacement of [3H]Prazosin from human recombinant alpha 1D adrenergic receptor expressed in CHO cells incubated for 30 mins by radioligand competition binding assay

[4] = molecular target: T4, 5-hydroxytryptamine receptor 1A (Homo sapiens, UniProt P08908); test: biochemical
T4 sequence (P08908 whole entry): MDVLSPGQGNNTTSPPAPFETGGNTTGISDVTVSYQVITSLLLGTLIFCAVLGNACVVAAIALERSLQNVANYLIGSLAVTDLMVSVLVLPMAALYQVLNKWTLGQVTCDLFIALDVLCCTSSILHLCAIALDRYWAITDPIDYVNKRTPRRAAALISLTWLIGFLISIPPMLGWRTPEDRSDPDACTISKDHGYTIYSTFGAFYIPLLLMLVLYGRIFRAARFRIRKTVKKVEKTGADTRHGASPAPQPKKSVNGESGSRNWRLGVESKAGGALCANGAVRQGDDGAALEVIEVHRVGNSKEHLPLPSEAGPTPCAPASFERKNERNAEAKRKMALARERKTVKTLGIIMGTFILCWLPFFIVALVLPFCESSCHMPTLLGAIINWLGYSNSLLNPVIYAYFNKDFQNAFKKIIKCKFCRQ

[5] = molecular target: T5, 5-hydroxytryptamine receptor 1A (Homo sapiens) (UniProt P08908); test: Agonist activity at cloned human 5-HT1A receptor transfected in human HeLa cell membranes preincubated for 20 mins followed by [35S]GTPgammaS addition and measured after 30 mins by liquid scintillation counting relative to 8-OH-DPAT; type: functional
T5 sequence (whole entry): T4 sequence (P08908 whole entry)

[6] = molecular target: T5, 5-hydroxytryptamine receptor 1A (Homo sapiens); test: Agonist activity at cloned human 5-HT1A receptor transfected in human HeLa cell membranes assessed as stimulation of [35S]GTPgammaS binding preincubated for 20 mins followed by [35S]GTPgammaS addition and measured after 30 mins by liquid scintillation counting; type: functional
D(2) dopamine receptor = D(2) dopamine receptor (Homo sapiens, UniProt P14416); test: Displacement of [3H]N-methylspiperone from human dopamine D2 receptor expressed in HEK293 cell membranes incubated for 1 hr by liquid scintillation counting
D(3) dopamine receptor = D(3) dopamine receptor (Homo sapiens, UniProt P35462); test: Displacement of [3H]N-methylspiperone from human dopamine D3 receptor expressed in HEK293 cell membranes incubated for 1 hr by liquid scintillation counting
D(4) dopamine receptor = molecular target: T6, D(4) dopamine receptor (Homo sapiens, UniProt P21917); test: Displacement of [3H]N-methylspiperone from human dopamine D4 receptor expressed in HEK293 cell membranes incubated for 1 hr by liquid scintillation counting
T6 sequence (P21917 whole entry): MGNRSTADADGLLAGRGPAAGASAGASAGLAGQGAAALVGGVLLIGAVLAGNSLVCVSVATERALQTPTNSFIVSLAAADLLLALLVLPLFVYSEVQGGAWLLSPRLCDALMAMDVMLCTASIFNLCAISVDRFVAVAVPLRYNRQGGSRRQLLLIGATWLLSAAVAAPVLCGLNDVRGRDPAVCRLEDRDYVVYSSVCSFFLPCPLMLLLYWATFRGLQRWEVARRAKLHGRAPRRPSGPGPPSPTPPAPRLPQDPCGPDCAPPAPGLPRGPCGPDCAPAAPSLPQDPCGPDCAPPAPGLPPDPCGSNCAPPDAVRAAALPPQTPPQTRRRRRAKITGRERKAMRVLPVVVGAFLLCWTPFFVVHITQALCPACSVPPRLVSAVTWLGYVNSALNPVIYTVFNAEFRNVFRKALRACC

PC-3 [7] = test: Growth inhibition of human PC3 cells incubated for 48 hrs by SRB assay; type: functional; conditions: PC-3, 48 h; for CC50: read-out: LC50 (the source's name)
DU-145 [8] = test: Growth inhibition of human DU145 cells incubated for 48 hrs by SRB assay; type: functional; conditions: DU-145, 48 h; for CC50: read-out: LC50 (the source's name)
[9] = (§1) Growth inhibition of human fibroblast cells incubated for 48 hrs by SRB assay; type: cell-based; conditions: human fibroblast cells
Fibroblast = test: as §1; type: cell-based; conditions: fibroblast, 48 h
[10] = molecular target: T5, 5-hydroxytryptamine receptor 1A (Homo sapiens); conditions: HeLa
DU-145 [11] = test: Inhibition of 5-HT-stimulated human DU145 cells proliferation at 5 to 10 uM incubated for 48 hrs by SRB assay; type: functional, cell-based
PC-3 [12] = test: Inhibition of 5-HT-stimulated human PC3 cells proliferation at 5 to 10 uM incubated for 48 hrs by SRB assay; type: functional, cell-based
PC-3 [13] = test: Inhibition of norepinephrine-stimulated human PC3 cells proliferation at 5 to 10 uM incubated for 48 hrs by SRB assay; type: functional, cell-based
DU-145 [14] = test: Inhibition of norepinephrine-stimulated human DU145 cells proliferation at 5 to 10 uM incubated for 48 hrs by SRB assay; type: functional, cell-based

Sequence of D(2) dopamine receptor (P14416 whole entry): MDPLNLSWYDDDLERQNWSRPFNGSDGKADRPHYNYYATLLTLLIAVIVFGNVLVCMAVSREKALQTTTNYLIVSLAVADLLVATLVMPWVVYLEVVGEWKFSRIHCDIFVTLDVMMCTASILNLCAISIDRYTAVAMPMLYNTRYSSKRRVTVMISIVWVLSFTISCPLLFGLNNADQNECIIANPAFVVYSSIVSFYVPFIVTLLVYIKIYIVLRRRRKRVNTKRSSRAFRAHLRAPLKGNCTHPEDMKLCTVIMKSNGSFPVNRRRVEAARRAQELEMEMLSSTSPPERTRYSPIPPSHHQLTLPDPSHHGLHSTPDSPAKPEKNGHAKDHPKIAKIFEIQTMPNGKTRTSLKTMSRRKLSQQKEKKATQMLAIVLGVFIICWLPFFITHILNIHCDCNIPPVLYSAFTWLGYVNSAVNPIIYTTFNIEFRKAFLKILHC
Sequence of D(3) dopamine receptor (P35462 whole entry): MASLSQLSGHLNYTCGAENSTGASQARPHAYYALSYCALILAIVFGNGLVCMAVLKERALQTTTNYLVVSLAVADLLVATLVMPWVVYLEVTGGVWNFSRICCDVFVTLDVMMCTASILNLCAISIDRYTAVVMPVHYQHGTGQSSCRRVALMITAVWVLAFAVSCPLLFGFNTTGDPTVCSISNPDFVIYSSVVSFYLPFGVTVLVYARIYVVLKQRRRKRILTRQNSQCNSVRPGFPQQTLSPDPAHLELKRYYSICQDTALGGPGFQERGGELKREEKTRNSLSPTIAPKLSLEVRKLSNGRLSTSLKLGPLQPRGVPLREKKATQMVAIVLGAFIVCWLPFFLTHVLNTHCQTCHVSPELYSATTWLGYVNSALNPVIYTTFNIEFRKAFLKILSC

SMILES	Ki [1] [µM]	Ki [2] [µM]	Ki [3] [µM]	Ki [4] [µM]	further results
COc1ccccc1N1CCN(CC2(c3ccccc3)COCCO2)CC1 (stereo not drawn)	> 1	> 1	> 1	0.174	–
c1ccc(OCCNC[C@H]2OCCO[C@@H]2c2ccccc2)cc1 (relative stereo)	> 1	> 1	> 1	0.055	–
COc1cccc(OC)c1OCCNCC1(c2ccccc2)COCCO1 (stereo not drawn)	> 1	> 1	> 1	> 1	–
COc1cccc(OC)c1OCCNC[C@H]1OCCO[C@@H]1c1ccccc1 (relative stereo)	> 1	> 1	> 1	0.0977	–
COc1ccccc1N1CCN(C[C@H]2OCCOC2(c2ccccc2)c2ccccc2)CC1	0.355	0.38	0.0891	0.012	Ki (D(2) dopamine receptor): 2.19 µM; Ki (D(3) dopamine receptor): 2.88 µM; Ki (D(4) dopamine receptor): 9.77 µM; GI50 (PC-3 [7]): 25 µM; TGI (PC-3 [7]): 78 µM; CC50 (PC-3 [7]): 240 µM; GI50 (DU-145 [8]): 35 µM; TGI (DU-145 [8]): 80 µM; CC50 (DU-145 [8]): 180 µM; GI50 at 48 h [9]: > 300 µM; LC50 (Fibroblast): > 300 µM; TGI (Fibroblast): > 300 µM; pKb [10]: 8.14
COc1ccccc1OCCNC[C@H]1OCCO[C@H]1c1ccccc1 (relative stereo)	> 1	> 1	0.126	0.0204	Emax [5]: 24.3%; pD2 [6]: 7.13
COc1ccccc1OCCNCC1COCC(c2ccccc2)(c2ccccc2)O1 (stereo not drawn)	–	–	–	–	pD2 [6]: 9.4; GI50 (PC-3 [7]): 26 µM; TGI (PC-3 [7]): 64 µM; CC50 (PC-3 [7]): 157 µM; GI50 (DU-145 [8]): 23 µM; TGI (DU-145 [8]): 42 µM; CC50 (DU-145 [8]): 77 µM; GI50 at 48 h [9]: 38.4 µM; LC50 (Fibroblast): > 300 µM; TGI (Fibroblast): 121.6 µM
COc1ccccc1OCCNCC1OCCOC1(c1ccccc1)c1ccccc1 (stereo not drawn)	> 1	0.0676	0.00741	0.00398	inhibition (DU-145 [11]): Active; inhibition (PC-3 [12]): Active; Ki (D(2) dopamine receptor): 0.324 µM; Ki (D(3) dopamine receptor): 0.537 µM; Ki (D(4) dopamine receptor): 0.275 µM; GI50 (PC-3 [7]): 13 µM; TGI (PC-3 [7]): 29 µM; CC50 (PC-3 [7]): 68 µM; GI50 (DU-145 [8]): 18 µM; TGI (DU-145 [8]): 32 µM; CC50 (DU-145 [8]): 55 µM; GI50 at 48 h [9]: 30.5 µM; LC50 (Fibroblast): 99.6 µM; TGI (Fibroblast): 50.2 µM; inhibition (PC-3 [13]): Active; inhibition (DU-145 [14]): Active; pKb [10]: 8.5
c1ccc(OCCNC[C@H]2OCCO[C@H]2c2ccccc2)cc1 (relative stereo)	> 1	> 1	> 1	0.214	–
COc1cccc(OC)c1OCCNC[C@H]1OCCO[C@H]1c1ccccc1 (relative stereo)	> 1	> 1	> 1	0.182	–

Continued, in another order:

Ki [1] [µM]	Ki [2] [µM]	Ki [3] [µM]	Ki [4] [µM]	SMILES	further results
> 1	> 1	> 1	0.0661	COc1cccc(OC)c1OCCNCC1OCCOC1(c1ccccc1)c1ccccc1 (stereo not drawn)	–
> 1	> 1	0.316	0.0282	c1ccc(OCCNCC2OCCOC2(c2ccccc2)c2ccccc2)cc1 (stereo not drawn)	Emax [5]: 32.9%; pD2 [6]: 6.71
> 1	> 1	0.0692	0.0759	COc1ccccc1OCCNCC1(c2ccccc2)COCCO1 (stereo not drawn)	–
> 1	> 1	0.0537	0.214	COc1ccccc1N1CCN(C[C@H]2OCCO[C@@H]2c2ccccc2)CC1 (relative stereo)	–
> 1	> 1	0.191	0.0708	COc1ccccc1N1CCN(C[C@H]2OCCO[C@H]2c2ccccc2)CC1 (relative stereo)	–
> 1	> 1	> 1	0.269	c1ccc(OCCNCC2(c3ccccc3)COCCO2)cc1 (stereo not drawn)	–
0.00263	0.0229	0.00174	0.00501	COc1ccccc1N1CCN(CC2COCC(c3ccccc3)(c3ccccc3)O2)CC1 (stereo not drawn)	Emax [5]: 39.3%; Ki (D(2) dopamine receptor): 0.112 µM; Ki (D(3) dopamine receptor): 0.257 µM; Ki (D(4) dopamine receptor): 1.38 µM; pD2 [6]: 7.01
> 1	> 1	0.0955	0.00955	COc1ccccc1OCCNC[C@H]1OCCO[C@@H]1c1ccccc1 (relative stereo)	pKb [10]: 8.2
